{"source": "patent US8101626B2", "about": "“GPR119 receptor agonists in methods of increasing bone mass and of treating osteoporosis and other conditions characterized by low bone mass, and combination therapy relating thereto” (Arena Pharmaceuticals, Inc., priority 2006, dated 2012)", "key": {"[1]": {"test_system": "GPR119 receptor", "experiment": "Effect of oral GPR119 agonist on plasma GIP level in GPR119-deficient (knockout) mice compared to wild-type littermates", "format": "in vivo", "details": "20 mg/kg per orally vs vehicle PET; blood at time 0 and 5 min after glucose bolus 3 g/kg; FIG. 2A", "protocol": "(§1) A. GPR119-deficient male mice and wild-type littermates were fasted for 18 hours. Mice were administered per orally with vehicle (PET; 80% PEG400, 10% ethanol, 10% Tween80) or with a GPR119 agonist in accordance with the present invention (Compound 1Z; (2-Fluoro-4-methanesulfonyl-phenyl)-{6-[4-(3-isopropyl-[1,2,4]oxadiazol-5-yl)-piperidin-1-yl]-5-nitro-pyrimidin-4-yl}-amine) at 20 mg/kg, as indicated (n=5). Thirty minutes after treatment, blood (100 microliter) was collected via retro orbital vein of the eye (time 0) followed by a glucose bolus at 3 g/kg (per orally). Five minutes after delivering glucose, another blood sample (100 microliter) was collected (time 5 minutes). Plasma were collected after centrifugation and GIP levels were determined by using a rodent GIP ELISA kit purchased from Linco Research Laboratory [Rat/Mouse Gastric Inhibitory Polypeptide (Total) ELISA Catalog #EZRMGIP-55K], following instructions provided by the supplier. […]\n(§2) B. GPR119-deficient male mice and wild-type littermates were fasted for 18 hours. […] Plasma were collected after centrifugation and GIP levels were determined by using a rodent GIP ELISA kit purchased from Linco Research Laboratory [Rat/Mouse Gastric Inhibitory Polypeptide (Total) ELISA Catalog #EZRMGIP-55K], following instructions provided by the supplier. […]"}, "[2]": {"biological_target": "T1, GPR119 receptor (Mus musculus, UniProt Q7TQP3)", "T1 construct": "from tissue; host or cells: whole animal: wild-type male mice dosed orally, compared with GPR119-deficient littermates", "T1 sequence (Q7TQP3 1-335)": "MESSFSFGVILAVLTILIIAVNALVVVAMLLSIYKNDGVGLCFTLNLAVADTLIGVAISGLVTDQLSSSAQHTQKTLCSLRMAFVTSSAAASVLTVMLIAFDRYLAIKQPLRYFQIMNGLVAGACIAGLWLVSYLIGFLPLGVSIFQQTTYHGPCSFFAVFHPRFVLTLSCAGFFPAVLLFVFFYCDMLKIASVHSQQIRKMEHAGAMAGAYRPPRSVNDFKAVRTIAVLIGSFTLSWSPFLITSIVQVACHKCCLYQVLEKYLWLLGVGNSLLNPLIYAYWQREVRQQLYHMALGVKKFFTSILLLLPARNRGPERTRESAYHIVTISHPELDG", "experiment": "Effect of oral GPR119 agonist on plasma GIP level in GPR119-deficient (knockout) mice compared to wild-type littermates", "format": "in vivo", "details": "20 mg/kg per orally; wild-type littermates; time 0 and 5 min after glucose bolus 3 g/kg; FIG. 2A", "protocol": "as §1, §2"}, "[3]": {"test_system": "blood GIP level", "experiment": "Effect of oral GPR119 agonist on plasma GIP level (rodent total GIP ELISA) in wild-type mice, with oral glucose bolus", "format": "in vivo, C57blk/6 male mice", "details": "20 mg/kg per orally vs vehicle PET, FIG. 1A", "protocol": "A. C57blk/6 male mice were fasted for 18 hours, and randomly assigned into fourteen groups with n=6 for each group. Mice were administered per orally with vehicle (PET; 80% PEG400, 10% ethanol, 10% Tween80) or with a GPR119 agonist in accordance with the present invention (Compound 1Z; (2-Fluoro-4-methanesulfonyl-phenyl)-{6-[4-(3-isopropyl-[1,2,4]oxadiazol-5-yl)-piperidin-1-yl]-5-nitro-pyrimidin-4-yl}-amine) at 20 mg/kg, as indicated in FIG. 1A. Thirty minutes after treatment, a glucose bolus at 3 g/kg were delivered per orally, and plasma were collected at 0 (no glucose bolus), 2, 5, 10, 20, 40 and 60 minutes after glucose bolus. Plasma GIP levels were determined by using a rodent GIP ELISA kit purchased from Linco Research Laboratory [Rat/Mouse Gastric Inhibitory Polypeptide (Total) ELISA Catalog #EZRMGIP-55K], following instructions provided by the supplier. […]\nB. C57blk/6 male mice were fasted for 18 hours, and randomly assigned into fourteen groups with n=6 for each group. […] Plasma GIP levels were determined by using a rodent GIP ELISA kit purchased from Linco Research Laboratory [Rat/Mouse Gastric Inhibitory Polypeptide (Total) ELISA Catalog #EZRMGIP-55K], following instructions provided by the supplier. […] Mean values of GIP concentration were calculated based on results with six mice in each group and shown as mean±SEM. […]"}}}
{"smiles": "CC(C)c1noc(C2CCN(c3ncnc(Nc4ccc(S(C)(=O)=O)cc4F)c3[N+](=O)[O-])CC2)n1", "note": "[Compound 1Z, (2-Fluoro-4-methanesulfonyl-phenyl)-{6-[4-(3-isopropyl-[1,2,4]oxadiazol-5-yl)-piperidin-1-yl]-5-nitro-pyrimidin-4-yl}-amine]", "values": [{"measurement": "glucose-independent and glucose-dependent level of GIP in the blood, GPR119-deficient vs wild-type mice", "setting": "[1]", "result": "functional GPR119 receptor was necessary for the administered GPR119 agonist to increase a glucose-independent level and a glucose-dependent level of GIP"}, {"measurement": "plasma total GIP in wild-type mice", "setting": "[2]", "result": "stimulated plasma total GIP in the wild-type mice"}, {"measurement": "level of GIP in the blood of the mice (glucose-dependent and glucose-independent)", "setting": "[3]; glucose bolus 3 g/kg 30 min after treatment, plasma at 0 (no glucose bolus), 2, 5, 10, 20, 40, 60 min", "result": "increased both a glucose-dependent and a glucose-independent level of GIP"}, {"measurement": "plasma total GIP", "setting": "[3]; glucose bolus 3 g/kg, time course 0-60 min", "result": "stimulated plasma total GIP"}]}
